One block for each compound: values may come before it. Active and inactive are the calls of the source. The calls are words filed in the database; no cut-off is given here.
Columns and labels:
[1] = biological target: Human immunodeficiency virus type 1 reverse transcriptase (Human immunodeficiency virus 1) (UniProt Q72547); experiment: (§1) Inhibition of HIV1 LAI clade B reverse transcriptase RNase H activity by real time monitoring assay
[2] = Cytotoxicity against T cells at >25 uM by MTT assay; format: cell-based; settings: t-cell
[3] = biological target: T1, Human immunodeficiency virus type 1 reverse transcriptase (Human immunodeficiency virus 1, UniProt Q72547); experiment: as §1
[4] = Cytotoxicity against CD4-CXCR4 expressing human NP2 cells at >25 uM by MTT assay; format: cell-based
[5] = biological target: T1, Human immunodeficiency virus type 1 reverse transcriptase; experiment: Inhibition of HIV1 LAI clade C 93IN101 reverse transcriptase RNase H activity by real time monitoring assay
[6] = Inhibition of murine leukemia virus reverse transcriptase by real time monitoring assay
[7] = Cytotoxicity against IL2 and anti-CD3-stimulated CD4 expressing primary T cells at 25 to 30 uM by MTT assay; format: cell-based; settings: t-cell
[8] = biological target: T1, Human immunodeficiency virus type 1 reverse transcriptase; experiment: Inhibition of HIV1 LAI CRF01 A_E s93JP-NH1 reverse transcriptase RNase H activity by real time monitoring assay; parameters: species or system 93JP-NH1
[9] = biological target: T2, Ribonuclease H1 (Homo sapiens) (UniProt O60930); experiment: Inhibition of human RNase H1 by real time monitoring assay
T2 sequence (whole entry): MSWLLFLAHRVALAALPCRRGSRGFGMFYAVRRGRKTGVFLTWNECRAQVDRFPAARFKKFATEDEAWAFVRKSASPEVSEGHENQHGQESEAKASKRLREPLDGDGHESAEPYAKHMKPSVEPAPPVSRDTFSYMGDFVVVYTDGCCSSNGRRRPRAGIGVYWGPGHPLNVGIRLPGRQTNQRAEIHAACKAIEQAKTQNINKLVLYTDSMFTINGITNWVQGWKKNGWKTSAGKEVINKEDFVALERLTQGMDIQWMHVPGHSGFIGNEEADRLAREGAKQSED

[10] = biological target: Human immunodeficiency virus type 1 integrase (Human immunodeficiency virus 1) (UniProt Q7ZJM1); experiment: Inhibition of HIV1 integrase by real time monitoring assay
Escherichia coli = experiment: Inhibition of Escherichia coli RNase H by real time monitoring assay
[11] = tested on: Human immunodeficiency virus 1; experiment: Inhibition of HIV1 NL4-3 replication in CD4-CXCR4 expressing human NP2 cells assessed as decrease in p24 antigen production after 4 days by ELISA; settings: Human immunodeficiency virus 1, NL4-3, NP2, 96 h
[12] = tested on: Human immunodeficiency virus 1; experiment: Inhibition of HIV1 NL4-3 replication in CD4 expressing human T cells assessed as decrease in p24 antigen production at 25 uM after 4 days by ELISA; format: functional, organism-based; settings: T-cell

Sequence of Human immunodeficiency virus type 1 integrase (Human immunodeficiency virus 1) (Q7ZJM1 as listed by the source): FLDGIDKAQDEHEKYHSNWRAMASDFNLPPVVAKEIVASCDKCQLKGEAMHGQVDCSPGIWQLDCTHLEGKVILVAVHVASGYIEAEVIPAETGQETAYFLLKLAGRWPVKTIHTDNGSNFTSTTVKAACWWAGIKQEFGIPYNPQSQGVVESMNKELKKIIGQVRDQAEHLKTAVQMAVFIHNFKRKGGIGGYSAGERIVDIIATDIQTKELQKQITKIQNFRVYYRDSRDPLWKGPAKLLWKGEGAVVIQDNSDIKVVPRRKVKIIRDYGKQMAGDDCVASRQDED

SMILES: O=C(COC(=O)c1cncc(Br)c1)NC12CC3CC(CC(C3)C1)C2
Activity [1]: inactive

SMILES: O=C1CCC(C(=O)OCC(=O)NC23CC4CC(CC(C4)C2)C3)N1 (centres undefined)
Activity [1]: inactive

SMILES: O=C(COC(=O)c1cccnc1Cl)NC12CC3CC(CC(C3)C1)C2
Activity [1]: inactive

SMILES: O=C(COC(=O)c1ccc([N+](=O)[O-])o1)NC12CC3CC(CC(C3)C1)C2
Activity [2]: 50%
IC50 [3]: 29.6 µM
Activity [4]: 50%
IC50 [5]: 26.5 µM
IC50 [6]: 8.4 µM
Activity [7]: 50%
IC50 [8]: 3.8 µM
Activity [9]: inactive
Activity [10]: inactive
Activity (Escherichia coli): inactive

SMILES: O=C(OCC(=O)N(CC1CCCO1)c1nc(-c2ccc(Br)cc2)cs1)c1ccc([N+](=O)[O-])o1 (centres undefined)
Activity [2]: 50%
IC50 [3]: 26.7 µM
IC50 [11]: 22.7 µM
Activity [4]: 50%
IC50 [5]: 32.2 µM
IC50 [6]: 8.6 µM
Activity [7]: 50%
IC50 [8]: 2.6 µM
Activity [10]: inactive
Activity (Escherichia coli): inactive
Activity [12]: Active

SMILES: Cc1ccc(NC(=O)COC(=O)c2ccc([N+](=O)[O-])o2)cc1S(=O)(=O)N1CCCCCC1
Activity [1]: Active

SMILES: CCOC(=O)c1c(-c2cccs2)csc1NC(=O)COC(=O)c1ccc([N+](=O)[O-])o1
Activity [1]: inactive

SMILES: CCOc1cc(N2CCOCC2)cc(OCC)c1NC(=O)COC(=O)c1ccc([N+](=O)[O-])o1
Activity [1]: inactive

SMILES: CCOC(=O)c1sc(N(Cc2ccccc2)C(=O)COC(=O)c2ccc([N+](=O)[O-])o2)nc1C
Activity [1]: inactive

SMILES: O=C(COC(=O)c1ccc[nH]1)NC12CC3CC(CC(C3)C1)C2
Activity [1]: inactive

SMILES: CCOC(=O)c1c(NC(=O)COC(=O)c2ccc([N+](=O)[O-])o2)sc(C)c1C
Activity [1]: inactive

SMILES: CN(C)S(=O)(=O)c1cccc(NC(=O)COC(=O)c2ccc([N+](=O)[O-])o2)c1
Activity [1]: Active

SMILES: O=C(COC(=O)c1ccccn1)NC12CC3CC(CC(C3)C1)C2
Activity [1]: inactive

Next, values leading:

Activity [1]: Active
SMILES: O=C(COC(=O)c1ccc([N+](=O)[O-])o1)Nc1ncc(C(F)(F)F)cc1Cl

Activity [1]: inactive
SMILES: O=C(COC(=O)c1ccc([N+](=O)[O-])o1)Nc1ccc(F)cc1F

Activity [1]: Active
SMILES: O=C(COC(=O)c1ccc([N+](=O)[O-])o1)Nc1cc(C(F)(F)F)cc(C(F)(F)F)c1

Activity [1]: inactive
SMILES: Cc1ccc(NC(=O)COC(=O)c2ccc([N+](=O)[O-])o2)cc1

Activity [1]: inactive
SMILES: O=C(COC(=O)c1ccc([N+](=O)[O-])o1)Nc1ccccc1F

Activity [1]: Active
SMILES: O=C(COC(=O)c1ccc([N+](=O)[O-])o1)Nc1nc2ccccc2s1

Activity [1]: Active
SMILES: O=C(COC(=O)c1ccc([N+](=O)[O-])o1)Nc1ccc(Cl)c(S(=O)(=O)N2CCOCC2)c1

Source: ChEMBL document CHEMBL1140907, “Derivatives of 5-nitro-furan-2-carboxylic acid carbamoylmethyl ester inhibit RNase H activity associated with HIV-1 reverse transcriptase” (J Med Chem, 2009)
